In the test the target is T1, IL-1β protease (Homo sapiens, UniProt P29466).
T1 construct: Partially purified IL-1β protease is stored at -80°C
T1 sequence (P29466 120-297 limits assumed): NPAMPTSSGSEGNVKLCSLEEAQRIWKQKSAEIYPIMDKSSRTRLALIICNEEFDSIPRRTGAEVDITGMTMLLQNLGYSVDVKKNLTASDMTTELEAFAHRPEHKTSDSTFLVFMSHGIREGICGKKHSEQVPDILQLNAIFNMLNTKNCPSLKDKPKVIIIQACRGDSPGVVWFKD
T1 sequence (P29466 317-404 limits assumed): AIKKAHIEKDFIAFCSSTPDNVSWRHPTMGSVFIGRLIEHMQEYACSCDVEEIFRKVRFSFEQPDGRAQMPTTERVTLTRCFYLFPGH
Nature of the test: IL-1β protease inhibition assay (HPLC readout of TRITC-AYVHDAPVRS-NH2 substrate cleavage). The following applies: partially purified IL-1β protease; 15 minutes preincubation with inhibitor at 37°C; substrate 67 µM; 60 minutes at 37°C. In kind it is biochemical. The procedure:
Compounds of the present invention were tested for IL-1β protease inhibition activity according to the following protocol: Partially purified IL-1β protease is stored at -80°C, thawed on ice, and preincubated for 10 minutes at 37°C with 2.5 mM dithiothreitol in a buffer solution containing 10 mM Tris-HCI (pH 8.0) and 25% (v/w) glycerol. Inhibitors are prepared as stock solutions in dimethyl sulfoxide (DMSO). The protease is preincubated with inhibitor in a volume of 20 µl in a 1.5 ml polypropylene microcentrifuge tube for 15 minutes at 37°C. The volume of compound added to the assay is adjusted to yield a DMSO concentration in the preincubation of <15% (v/v). The enzyme assay is then initiated by the addition of substrate (TRITC-AYVHDAPVRS-NH2) to yield a final concentration of 67 µM in a final volume of 30 µl. The reactions are carried out for 60 minutes at 37°C in the dark and are terminated by the addition of 10 µl of 10% trifluoroacetic acid (TFA). Following the addition of 115 µl of 0.1% TFA, the samples are analyzed by high pressure liquid chromatography using a reverse phase (C18) column and elution with an acetonitrile/water/TFA gradient. Substrate and product are monitored by their absorbance at 550 nm and elute at 4.2 and 5.2 minutes, respectively.

Results on six compounds are retold here after patent EP0623592B1, “Peptide analogs as irreversible interleukin-1beta protease inhibitors” (VERTEX PHARMACEUTICALS INCORPORATED, priority 1993, dated 1994).

pIC50: −log10 of the molar value.

On to `O=C(O)C[C@H](NC(=O)OCc1ccccc1)C(=O)COC(=O)c1c(Cl)cccc1Cl` [Example 38, N-Benzyloxycarbonyl-L-Aspartic Acid 2,6-Dichlorobenzoyloxymethyl Ketone], for which the pIC50 was 7.30.

`O=C(O)C[C@H](NC(=O)OCc1ccccc1)C(=O)COC(=O)c1c(C(F)(F)F)cccc1C(F)(F)F` [Example 40, N-Benzyloxycarbonyl-L-aspartic acid 2,6-ditrifluoromethyl benzoyloxymethyl ketone] showed a pIC50 of 7.00.

Compound `O=C(O)C[C@H](NC(=O)OCc1ccccc1)C(=O)COc1c(Cl)cccc1Cl` [Example 41, N-Benzyloxycarbonyl-L-aspartic acid 2,6-dichlorophenoxymethylketone] had a pIC50 of 7.00.

As for `COC(=O)N[C@@H](C)C(=O)N[C@@H](CC(=O)O)C(=O)COC(=O)c1c(Cl)cccc1Cl` [Example 54, N-Methoxycarbonyl-L-alanine-L-aspartic acid 2,6-dichlorobenzoyloxymethyl ketone], the pIC50 was 7.22.

Compound `COC(=O)N[C@@H](Cc1ccccc1)C(=O)N[C@@H](CC(=O)O)C(=O)COC(=O)c1c(Cl)cccc1Cl` [Example 57, N-Methoxycarbonyl-L-phenylalanine-L-aspartic acid 2,6-dichlorobenzoyloxymethyl ketone] had a pIC50 of 7.15.

The compound `COC(=O)N[C@@H](CC(=O)O)C(=O)COC(=O)c1c(Cl)cccc1Cl` [Example 67, N-Methoxycarbonyl-L-aspartic acid 2,6-dichlorobenzoyloxymethyl ketone] had a pIC50 of 7.10.
